Patent US10588892B2, “Pharmaceutical composition comprising sacubitril and valsartan” (priority 2017, dated 2020)

Experiment: Stability of polymorphic forms towards relative humidity
Format: physicochemical
Settings: for stability at low relative humidity: relative humidity below 40%, temperatures between 15 and 30° C.
Experimental: Changes in humidity have less impact on the valsartan disodium form 2 as compared to the prior art form 1. […] By using valsartan disodium form 2 and by preparing the composition in an environment with relative humidity below 40%, at temperatures between 15 and 30° C., formation of the co-crystal is completely avoided. Any polymorphic form of sacubitril sodium can be used in accordance with the present invention. Preferably, the polymorphic form of sacubitril sodium is, like valsartan disodium form 2, very stable at relative humidity below […], at temperatures between 15 and 30° C. Particularly preferred polymorphic forms of sacubitril sodium to be used in a composition comprising a physical mixture with valsartan disodium form 2 are sacubitril sodium form 1 and form 2. Sacubitril sodium form 1 has an X-ray powder diffraction pattern comprising characteristic peaks at the following 2 theta (±0.2) angles: 3.14°, 6.25°, 11.97°, 12.73°, 13.78°, 16.50°, 18.35°, 19.93°, 21.56°, 23.75°, 26.20°, measured using a Cu Kα radiation. Sacubitril sodium form 2 has an X-ray powder diffraction pattern comprising characteristic peaks at the following 2 theta (±0.2) angles: 5.26°, 10.52°, 10.92°, 14.78°, 16.96°, 17.17°, 17.51°, 19.92°, 20.40°, 20.81°, 22.23°, measured using a Cu Kα radiation. […] The most preferred polymorphic form of sacubitril sodium to be used with valsartan disodium form 2 in a composition in accordance with the present invention is form 1.

## CCOC(=O)[C@H](C)C[C@@H](Cc1ccc(-c2ccccc2)cc1)NC(=O)CCC(=O)O [Sacubitril sodium form 1, sacubitril sodium]
  stability at low relative humidity: stable compounds

## CCCCC(=O)N(Cc1ccc(-c2ccccc2-c2nnn[nH]2)cc1)[C@H](C(=O)O)C(C)C [valsartan disodium form 2, valsartan disodium]
  impact of changes in humidity compared with prior art form 1: less impact
  stability compared with prior art form 1 (example 11 of WO2002006253): more stable
  stability at low relative humidity: particularly stable
